# Laboratory results as given in publication PMC4456386, “Ligand Recognition of the Major Birch Pollen Allergen Bet v 1 is Isoform Dependent” (PLoS ONE, 2015).
# Values joined by “and” are separate entries in the source; they are usually repeats but may differ in a detail not shown here. Equal values may be shown once. “Also recorded” adds a separate entry of the source.
# How the values were obtained:
# Bet v 1a [1] = target: T1, Bet v 1a (Betula pendula, UniProt P15494); test: UV/VIS equilibrium titration of flavonoids with Bet v 1a; format: binding, Betula verrucosa; details: for Kd: Dissociation constant Kd, UV/VIS titration, 298 K, pH 7.0, 10% DMSO, error = standard error of fit; for Absorption maxima, Bet v 1a:Flavonoid: complex with Bet v 1a
# T1 construct: made in house
# Protocol: (§1) All flavonoids and Bet v 1 isoforms were dissolved in 50 mM sodium phosphate, 50 mM NaCl, 10% (v/v) DMSO, pH 7.0, to a final concentration of 10 to 20 μM in 500 μl. Absorption spectra from 200–800 nm were recorded at 25°C in a 1 cm quartz cuvette (Hellma GmbH) using a 8453 UV-visible spectrophotometer (Agilent).
# (§2) To further characterize flavonoid binding to Bet v 1, titration experiments were performed by adding small amounts of concentrated Bet v 1 isoform a, d or m to different flavonoids. Changes of flavonoid absorption occurring at specific wavelengths were plotted against the protein concentration. Prior to curve-fitting, absorbance data were corrected for dilution. If possible, the equilibrium dissociation constant (K d) was determined by non-linear regression analysis of the data with GraFit-5 (Version 5.0, Erithacus Software, UK) using the following Eq (1): ΔA=ΔAmax/2Q[(B+Q+Kd)-((B+Q+Kd)^2-[…])] (1) ΔA max, maximum change in absorbance at specific wavelengths; B, Bet v 1a concentration; Q, total flavonoid concentration.
# Bet v 1m [2] = target: T2, Bet v 1m (Betula pendula, UniProt P43186); test: UV/VIS equilibrium titration of flavonoids with Bet v 1m; format: binding, Betula verrucosa; details: for Absorption maxima, Bet v 1m:Flavonoid: complex with Bet v 1m
# T2 construct: made in house
# Protocol: as §1, §2
# Bet v 1d [3] = target: T3, Bet v 1d (Betula pendula, UniProt P43177); test: UV/VIS equilibrium titration of flavonoids with Bet v 1d; format: binding, Betula verrucosa; details: for Absorption maxima, Bet v 1d:Flavonoid: complex with Bet v 1d
# T3 construct: made in house
# Protocol: as §1, §2
# Bet v 1a [4] = target: T1, Bet v 1a; test: 1H-15N HSQC NMR titration (chemical shift perturbation) of 15N-Bet v 1a; format: binding, Betula verrucosa; details: for Kd per residue / Kd / Dissociation constant Kd (averaged Kd app): Bet v 1a; for binding to Bet v 1a (in words): 1H-15N HSQC titration
# Protocol: (§3) All NMR experiments were performed at 298 K in 50 mM sodium phosphate buffer, 50 mM NaCl, pH 7.0, 10% deuterium oxide (^2H2O) with ^15N-uniformly labelled Bet v 1 isoforms using Bruker Avance 700 MHz and Avance 800 MHz spectrometers with cryogenically cooled triple-resonance probes equipped with pulsed field-gradient capabilities. NMR data were processed using NMRPipe and visualized with NMRViewJ [89]. Three-dimensional ^15N-edited NOESY (nuclear Overhauser enhancement spectroscopy, mixing times 120 ms) experiments to assign chemical shifts were obtained with 500 μM ^15N-labeled samples of Bet v 1 isoform d or m and yielded 91% of assigned residues for Bet v 1d and 89% for Bet v 1m. The sequence-specific assignments of the amide resonances of Bet v 1a are reported elsewhere.
# (§4) Interaction of Q3OS with the Bet v 1 isoforms was measured by incubating 700 μM Q3OS with 50 μM of each ^15N-labeled Bet v 1 isoform in 50 mM sodium phosphate, 50 mM NaCl buffer, pH 7.0.
# (§5) For titration experiments all other flavonoids were dissolved in deuterated DMSO, while glucose and galactose were dissolved in 50 mM sodium phosphate buffer, 50 mM NaCl, pH 7.0, 10% deuterium oxide and titrated stepwise to a final excess of up to 17-fold to protein samples (ca. 100 μM). […] CSPs for ligand binding were calculated based on Eq (2): […] (2) ΔδHN and ΔδN, chemical shift differences of amide proton and nitrogen resonances, respectively, in ppm.
# (§6) K d values for flavonoid binding were determined with NMRViewJ [89]. All analysable amino acid residues that were unaffected by DMSO addition and showing CSPs > 0.08 ppm were fitted to a quadratic binding curve with default settings, and an average K d app was calculated (Table 1 and S1–S3 Tables). The CSPs of all residues showing CSPs > 0.04 ppm were mapped either on models of Bet v 1d and Bet v 1m or on the Bet v 1a structure (pdb code 1BV1, [29]).
# Bet v 1m [5] = target: T2, Bet v 1m; test: 1H-15N HSQC NMR titration (chemical shift perturbation) of 15N-Bet v 1m; format: binding, Betula verrucosa
# Protocol: as §3, §4, §5, §6
# [6] = UV/VIS absorption spectra of unbound flavonoids; format: physicochemical; details: pH 7.0
# Protocol: as §1
# Bet v 1d [7] = target: T3, Bet v 1d; test: 1H-15N HSQC NMR titration (chemical shift perturbation) of 15N-Bet v 1d; format: binding, Betula verrucosa; details: for binding to Bet v 1d (in words): 1H-15N HSQC titration, up to 15-fold excess
# Protocol: as §3, §4, §5, §6
# Bet v 1m [8] = target: T2, Bet v 1m; test: 1H-15N HSQC NMR titration (chemical shift perturbation) of 15N-Bet v 1m; format: binding, Betula verrucosa; details: 1H-15N HSQC titration, up to 15-fold excess
# [9] = tested on: serum IgE binding to surface-coated Bet v 1a, Bet v 1d and Bet v 1m; test: Indirect ELISA for IgE binding to Bet v 1 isoforms; design: species or system human; details: 5-fold molar excess of ligand; isoforms a, d, m
# Source text: Fifteen sera of birch pollen-allergic subjects were collected, tested, and pooled according to the guideline of the European Medicines Agency (EMEA/CHMP/BWP/304831/2007). The serum pool is routinely used for batch-release testing of birch pollen-derived allergenic products at the Paul-Ehrlich-Institut. The same serum pool was used for both, ELISA and mediator release assays.
# For IgE-ELISA experiments, Maxisorp plates (Nunc via Fisher Scientific) were coated overnight at room temperature with 50 ng/100 μl recombinant Bet v 1 isoforms a, d, or m with a 5-fold molar excess of quercetin-3-O-sophorose, rutin, quercetin, quercetin-3-O-glucoside, quercetin-3-O-galactoside, or sophorose, respectively, in phosphate-buffered saline (PBS). After blocking with PBS containing 2% bovine serum albumin (BSA) these plates and an uncoated control were incubated with a dilution series of a serum pool of birch-pollen allergic subjects for 1 h at room temperature with PBS containing 0.05% Tween 20 and 0.1% BSA. Allergen-specific human IgE was detected with a horseradish peroxidase-conjugated mouse anti-human IgE antibody (Clone B3102E8, Southern biotech via Biozol, Eching, Germany) diluted 1:1000. 3,3′,5,5′-tetramethylbenzidine (Roth, Karlsruhe) was used as substrate for horseradish peroxidase, and the absorbance at 450 nm was measured after stopping the reaction with 25% H2SO4.
# [10] = one value per residue with Δδnorm > 0.08 ppm (residue named left of the cell), Int. Ex. = intermediate exchange
# [11] = Dissociation constant Kd (averaged Kd app), NMR, average of all analysable residues with CSPs > 0.08 ppm, ± standard deviation
# [12] = Kd per residue, one value per residue with Δδnorm > 0.08 ppm (residue named left of the cell), Int. Ex. = intermediate exchange
# [13] = NMR, average of all analysable residues with CSPs > 0.08 ppm, ± standard deviation
# [14] = NMR, Bet v 1d, average of all analysable residues with CSPs > 0.08 ppm, ± standard deviation
# [15] = NMR, average of all analysable residues with CSPs > 0.08 ppm, ± standard deviation, read-out: Dissociation constant Kd (averaged Kd app)
# T2 sequence (P43186 whole entry): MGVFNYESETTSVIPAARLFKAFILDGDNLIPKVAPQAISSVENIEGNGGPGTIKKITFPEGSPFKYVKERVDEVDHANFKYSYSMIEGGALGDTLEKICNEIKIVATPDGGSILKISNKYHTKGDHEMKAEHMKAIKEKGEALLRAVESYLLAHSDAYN
# T1 sequence (P15494 whole entry): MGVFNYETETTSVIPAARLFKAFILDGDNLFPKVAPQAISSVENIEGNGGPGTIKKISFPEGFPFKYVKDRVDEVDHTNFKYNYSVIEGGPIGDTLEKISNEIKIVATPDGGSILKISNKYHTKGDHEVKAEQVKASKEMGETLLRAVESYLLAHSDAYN
# T3 sequence (P43177 whole entry): as the sequence (P15494 whole entry) above, with T8I, F31V, S58N, I92V, S113C, I114V, D126N counted along it
Structure (SMILES),Kd (Bet v 1a [1]; Bet v 1a),"Absorption maxima, Bet v 1a:Flavonoid (Bet v 1a [1])",Kd (Bet v 1d [3]),"Absorption maxima, Bet v 1d:Flavonoid (Bet v 1d [3])",Kd per residue (Bet v 1a [4]; [10]),Kd (Bet v 1a [4]; [11]),Kd (Bet v 1a [4]; [12]),Kd (Bet v 1m [5]; [11]),Kd per residue (Bet v 1m [5]; [10]),"Absorption maxima, Flavonoid [6]",binding to Bet v 1a (in words) (Bet v 1a [4]),binding to Bet v 1d (in words) (Bet v 1d [7]),Dissociation constant Kd (averaged Kd app) (Bet v 1d [7]; [14]),binding to Bet v 1m (in words) (Bet v 1m [8]),influence of ligand on IgE binding of Bet v 1 isoforms [9],other results
"O=c1c(O)c(-c2ccc(O)c(O)c2)oc2cc(O)ccc12 [Fisetin, fisetin]",14.3 ± 1.1 µM,372 nm,13.9 ± 2.1 µM,371 nm,Int. Ex.,37.2 ± 6.5 µM,18.2 µM and 39.4 µM and 72.5 µM and 16.1 µM and 53.5 µM and 48 µM and 36.8 µM and 18.6 µM and 28.6 µM and 17.4 µM and 16.8 µM,85.1 ± 21.7 µM,Int. Ex.,368 nm,,,,,,"Kd (Bet v 1m [2]): 68.6 ± 12.4 µM; Absorption maxima, Bet v 1m:Flavonoid (Bet v 1m [2]): 370 nm; Kd (Bet v 1m [5]; [12]): 150 µM and 28.9 µM and 109 µM and 111 µM and 81.3 µM and 20.4 µM"
"O=c1cc(-c2ccccc2)oc2ccccc12 [Flavone, flavone]",,,,,,67.1 ± 12.1 µM,,213 ± 36.6 µM,,302 nm,,,,,,"Kd (Bet v 1d [7]; Dissociation constant Kd (averaged Kd app), NMR, Bet v 1d, average of all analysable residues with CSPs > 0.08 ppm, ± standard deviation): 69.9 ± 14.8 µM"
"O=C[C@H](O)[C@@H](O)[C@@H](O)[C@H](O)CO [Galactose, galactose]",,,,,,,,,,,no detectable affinity,no detectable affinity,No binding,no detectable affinity,,Dissociation constant Kd (averaged Kd app) (Bet v 1a [4]; [13]): No binding; Dissociation constant Kd (averaged Kd app) (Bet v 1m [5]; [13]): No binding
"OC[C@H]1OC(O)[C@H](O)[C@@H](O)[C@@H]1O (stereo partly drawn) [Glucose, glucose]",,,,,,,,,,,no detectable affinity,no detectable affinity,No binding,no detectable affinity,,Dissociation constant Kd (averaged Kd app) (Bet v 1a [4]; [13]): No binding; Dissociation constant Kd (averaged Kd app) (Bet v 1m [5]; [13]): No binding
"O=c1c(O)c(-c2cc(O)c(O)c(O)c2)oc2cc(O)cc(O)c12 [Myricetin, myricetin]",4.2 ± 0.7 µM,387 nm,1.2 ± 0.2 µM,382 nm,Int. Ex.,14.6 ± 6.5 µM,5 µM and 11.6 µM and 26.9 µM,99.3 ± 19.4 µM,Int. Ex.,378 nm,,,,,,fold higher affinity than flavone (Bet v 1a [1]; Bet v 1a): 15 fold; fold higher affinity than flavone (Bet v 1d [3]; Bet v 1d): 60 fold; Kd (Bet v 1m [5]; [12]): 75.3 µM and 161 µM and 24.4 µM and 88.5 µM and 126 µM and 120 µM
"O=C1C[C@@H](c2ccc(O)cc2)Oc2cc(O)cc(O)c21 [Naringenin, naringenin]",60.6 ± 3.2 µM,325 nm,37.7 ± 6.4 µM,325 nm,Int. Ex.,~30 µM and 30 µM,,22.1 ± 5.5 µM,Int. Ex.,325 nm,,,,,,"Kd (Bet v 1m [2]): 28.1 ± 0.8 µM; Absorption maxima, Bet v 1m:Flavonoid (Bet v 1m [2]): 322 nm; Kd (Bet v 1m [5]; [12]): 8.2 µM and 13.6 µM and 19 µM and 39.6 µM and 27.1 µM"
"O=c1c(O[C@@H]2O[C@H](CO)[C@H](O)[C@H](O)[C@H]2O)c(-c2ccc(O)c(O)c2)oc2cc(O)cc(O)c12 [Q3OGal, quercetin-3-O-galactoside]",,,,,Int. Ex.,,,,Int. Ex.,358 nm,high affinity; also recorded: strong,Weak affinity; also recorded: did not produce significant CSPs,No binding,High affinity,did not modify IgE-binding,Kd (Bet v 1a [4]; [15]): < 5 µM; Kd (Bet v 1m [5]; [15]): < 5 µM
"O=c1c(O[C@@H]2O[C@H](CO)[C@@H](O)[C@H](O)[C@H]2O)c(-c2ccc(O)c(O)c2)oc2cc(O)cc(O)c12 [Q3OGlc, quercetin-3-O-glucoside]",,,,,Int. Ex.,288 µM,357 µM and 259 µM and 285 µM and 252 µM,< 5 µM,Int. Ex.,364 nm,weak,Weak affinity; also recorded: did not produce significant CSPs,No binding,High affinity; also recorded: strongly binds,did not modify IgE-binding,
"O=c1c(O)c(-c2ccc(O)c(O)c2)oc2cc(O)cc(O)c12 [Quercetin, quercetin]",9.2 ± 0.6 µM,382 nm,10.2 ± 1 µM,382 nm,Int. Ex.,31.4 ± 10.3 µM,69.1 µM and 36.8 µM and 11.1 µM and 21.6 µM and 18.6 µM,65.8 ± 8.2 µM,Int. Ex,377 nm,,,,,did not modify IgE-binding,"Kd (Bet v 1m [2]): 26.5 ± 1.5 µM; Absorption maxima, Bet v 1m:Flavonoid (Bet v 1m [2]): 381 nm"
C[C@@H]1O[C@@H](OC[C@H]2O[C@@H](Oc3c(-c4ccc(O)c(O)c4)oc4cc(O)cc(O)c4c3=O)[C@H](O)[C@@H](O)[C@@H]2O)[C@H](O)[C@H](O)[C@H]1O [rutin],,,,,,,,,,,,,,,did not modify IgE-binding,
OC[C@H]1O[C@@H](O[C@H]2C(O)O[C@H](CO)[C@@H](O)[C@@H]2O)[C@H](O)[C@@H](O)[C@@H]1O (stereo partly drawn) [sophorose],,,,,,,,,,,,,,,did not modify IgE-binding,
